Data from patent US11478471B2, “Methods and compositions for treating diabetes, metabolic syndrome and other conditions” (priority 2005, dated 2022).
In brackets after ≈: the same amount, converted by molar mass. Entries after “also recorded” stand apart in the source; their conditions may differ. Read-outs that look alike come from different tables or passages of the source.

How the values were obtained:
[1] = humans, cited from earlier work
P450 4A = conditions: read-out: IC50, lauric acid hydroxylase (4A); Rotstein et al. 1992; cited from earlier work
Candida parapsilosis = experiment: Antifungal MIC; assay type: cell-based; conditions: Lodderomyces parapsilosis, read-out: MIC
Candida kefyr = experiment: Antifungal MIC; assay type: cell-based; conditions: Kluyveromyces marxianus, DSM11954; DSM strain 11954, 48 h
P450 2C6 = P450 2C6 (Rattus norvegicus, UniProt P05178); conditions: Rotstein et al. 1992; read-out: IC50, progesterone 21 hydroxylase (2C6); cited from earlier work
Candida guilliermondii = experiment: Antifungal MIC; assay type: cell-based; conditions: Meyerozyma guilliermondii, DSM11947; DSM strain 11947, 48 h
[2] = test system: P450 2B1, 2B2, 1A1, 2C11, 3A; conditions: read-out: IC50, progesterone 16α hydroxylase (2B1, 2B2, 1A1, 2C11, 3A); Rotstein et al. 1992; cited from earlier work
Candida albicans = experiment: Antifungal MIC; assay type: cell-based; conditions: read-out: MIC
Candida tropicalis = experiment: Antifungal MIC; assay type: cell-based
Cryptococcus neoformans = experiment: Antifungal MIC; assay type: cell-based
[3] = test system: CYP7A (cholesterol 7α hydroxylase); experiment: Inhibition of CYP7A, cholesterol 7α-hydroxylase activity (Rotstein et al. 1992); conditions: assuming intrahepatic concentration approximately 20% of total plasma concentration; listed as 2R,4S enantiomer
Saccharomyces cerevisiae = experiment: Antifungal MIC; assay type: cell-based; conditions: DSM01333, DSM strain 01333, 48 h
Candida glabrata = experiment: Antifungal MIC; assay type: cell-based; conditions: Nakaseomyces glabratus, read-out: MIC
cholesterol levels = experiment: Cholesterol levels in rats after oral dosing; assay type: in vivo, Sprague Dawley rats; conditions: single oral 200 mg/kg
Protocol: (§1) The rats were maintained as described above; the drugs were suspended in olive oil, and each rat was dosed once via gastric tube to achieve a dose of 200 mg/kg. All of the rats were dosed at a specific time so that all terminations occurred between 6 and 7 pm. […] Following sacrifice, plasma was prepared, and the concentration of corticosterone in the plasma was determined by ELISA. In the same plasma samples, total cholesterol levels were also determined.

Issatchenkia orientalis = experiment: Antifungal MIC; assay type: cell-based; conditions: Pichia kudriavzevii, read-out: MIC
P450 3A = conditions: read-out: IC50, progesterone 6β hydroxylase (3A); Rotstein et al. 1992; cited from earlier work
plasma corticosterone = experiment: Plasma corticosterone in rats after oral dosing (ELISA); assay type: in vivo, Sprague Dawley rats; conditions: for effect on plasma corticosterone (FIG. 1): 200 mg/kg oral, vs vehicle; for Corticosteroid Levels (mean ± SEM): 4 h after gavage
Protocol: To generate the results shown in FIG. 1, five groups (eight per group) of rats were used. The rats were maintained on a 14/10 hour light/dark cycle and allowed free access to food and water. Each rat was dosed (200 mg drug/kg body weight) via a gastric tube. […] All of the rats were dosed between 2.00 and 3.00 pm and were sacrificed four hours later (between 6.00 and 7.00 pm). Plasma was prepared and the concentration of corticosterone determined by an enzyme linked immuno assay (ELISA). In rats, the predominant active glucocorticoid is corticosterone; in humans, the predominant active glucucorticoid is the closely related molecule cortisol.
The rats were maintained and dosed as described above. Plasma was prepared and the concentration of corticosterone in the plasma determined by ELISA.
as §1
In the Table, corticosterone levels (mean±SEM; ng/mL) were determined four hours after oral gavage of the indicated drug (N=10/group). There was a single control group (dosed with vehicle).
Corticosterone levels (mean±SEM; ng/mL) were determined at the indicated times after oral gavage of the indicated drug at 200 mg/kg. […] The means of the vehicle treated groups are used as the time zero control point.

testosterone levels = experiment: Testosterone levels in rats after oral dosing; assay type: in vivo, Sprague Dawley rats; conditions: for Testosterone levels (mean ± SEM): 4 h after gavage
Source text: There was a single control group (dosed with vehicle).
The means of the vehicle treated groups are used as the time zero control point.

succinate dehydrogenase = biological target: T1, succinate dehydrogenase (Rattus norvegicus, UniProt Q920L2); conditions: read-out: in vitro IC50, succinate dehydrogenase; cited from earlier work
T1 construct: host or cells: isolated rat liver mitochondria (from the cited title)

[4] = following fifth 200 mg dose of racemic ketoconazole (every twelve hours)
[5] = following first 200 mg dose of racemic ketoconazole

T1 sequence (Q920L2 35-656): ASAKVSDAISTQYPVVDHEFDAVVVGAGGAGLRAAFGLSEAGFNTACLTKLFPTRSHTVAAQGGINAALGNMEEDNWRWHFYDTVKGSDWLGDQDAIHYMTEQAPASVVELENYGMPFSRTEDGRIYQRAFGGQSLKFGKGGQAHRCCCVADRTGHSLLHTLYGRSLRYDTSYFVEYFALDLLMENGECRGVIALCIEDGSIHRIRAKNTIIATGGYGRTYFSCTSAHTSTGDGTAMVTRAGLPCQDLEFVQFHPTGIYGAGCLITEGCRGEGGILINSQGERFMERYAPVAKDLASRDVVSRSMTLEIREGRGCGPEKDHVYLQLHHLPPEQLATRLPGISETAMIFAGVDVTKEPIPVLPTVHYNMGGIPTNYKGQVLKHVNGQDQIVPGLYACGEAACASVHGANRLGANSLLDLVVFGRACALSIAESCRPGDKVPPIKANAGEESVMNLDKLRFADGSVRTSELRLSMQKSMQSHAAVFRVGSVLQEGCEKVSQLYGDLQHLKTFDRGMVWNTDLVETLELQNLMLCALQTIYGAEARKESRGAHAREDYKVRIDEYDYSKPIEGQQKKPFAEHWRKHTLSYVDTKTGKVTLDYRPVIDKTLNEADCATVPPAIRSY
T1 sequence (P21913 31-282 partner): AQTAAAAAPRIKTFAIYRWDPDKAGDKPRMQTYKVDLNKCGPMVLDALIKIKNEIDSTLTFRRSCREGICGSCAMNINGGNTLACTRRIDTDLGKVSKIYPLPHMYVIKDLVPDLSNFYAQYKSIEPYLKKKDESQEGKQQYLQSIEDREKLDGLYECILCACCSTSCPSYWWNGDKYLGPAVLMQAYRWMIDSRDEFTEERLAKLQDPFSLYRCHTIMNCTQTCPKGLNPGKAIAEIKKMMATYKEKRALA
T1 sequence (Q641Z9 30-169 partner limits assumed): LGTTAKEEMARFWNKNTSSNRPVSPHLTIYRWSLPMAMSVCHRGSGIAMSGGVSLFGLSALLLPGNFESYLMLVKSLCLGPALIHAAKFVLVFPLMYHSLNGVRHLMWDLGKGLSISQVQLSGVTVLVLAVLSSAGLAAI
T1 sequence (Q6PCT8 57-159 partner): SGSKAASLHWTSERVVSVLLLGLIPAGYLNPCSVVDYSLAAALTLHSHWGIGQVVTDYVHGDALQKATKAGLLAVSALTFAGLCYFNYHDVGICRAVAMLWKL
P450 2C6, sequence (P05178 whole entry): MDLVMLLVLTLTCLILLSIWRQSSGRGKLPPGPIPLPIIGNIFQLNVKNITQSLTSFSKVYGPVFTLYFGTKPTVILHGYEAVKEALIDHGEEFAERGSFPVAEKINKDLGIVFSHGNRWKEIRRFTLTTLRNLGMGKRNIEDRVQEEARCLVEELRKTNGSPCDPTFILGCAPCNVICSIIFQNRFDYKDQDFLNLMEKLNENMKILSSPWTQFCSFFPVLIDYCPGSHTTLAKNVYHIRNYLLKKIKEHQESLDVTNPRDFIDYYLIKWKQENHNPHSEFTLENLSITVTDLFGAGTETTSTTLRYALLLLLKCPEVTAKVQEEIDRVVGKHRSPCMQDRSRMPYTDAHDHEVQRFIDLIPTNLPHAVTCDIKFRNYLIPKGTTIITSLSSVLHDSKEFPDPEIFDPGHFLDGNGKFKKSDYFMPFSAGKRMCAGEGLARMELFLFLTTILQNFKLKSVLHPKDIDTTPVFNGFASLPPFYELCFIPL

In the case of `CC(=O)N1CCN(c2ccc(OC[C@H]3CO[C@](Cn4ccnc4)(c4ccc(Cl)cc4Cl)O3)cc2)CC1` [2R,4S], the “AUC 0-12” value [1, 4] is given as 1543 ± 231 µg·min/mL, the Cmax [1, 4] is given as 4770 ± 550 ng/mL and the “T ½” value [1, 4] is given as 2.63 ± 0.317 h. The “AUC 0-12” value [1, 5] was 820 ± 142 µg·min/mL, the Cmax [1, 5] was 3400 ± 440 ng/mL and the “T ½” value [1, 5] was 1.62 ± 0.13 h. The IC50 (P450 4A) was under 100 µM, the MIC (Candida parapsilosis; DSM05784, DSM strain 05784, 48 h) was 0.06 µg/mL (≈ 0.113 µM) and the MIC (Candida parapsilosis; DSM11224, DSM strain 11224, 48 h) was 0.06 µg/mL (≈ 0.113 µM). The MIC (Candida kefyr) was 0.03 µg/mL (≈ 0.0565 µM), the IC50 (P450 2C6) was 11.2 µM and the MIC (Candida guilliermondii) was 0.25 µg/mL (≈ 0.47 µM). For the same molecule, the IC50 [2] was 69 µM, the MIC (Candida albicans; DSM11225, DSM strain 11225, 48 h) was under 0.015 µg/mL and the MIC (Candida albicans; DSM11943, DSM strain 11943, 48 h) was under 0.015 µg/mL. For the same molecule, the MIC (Candida albicans; DSM11944, DSM strain 11944, 48 h) was under 0.015 µg/mL, the MIC (Candida albicans; DSM11945, DSM strain 11945, 48 h) was 0.03 µg/mL (≈ 0.0565 µM) and the MIC (Candida albicans; DSM11948, DSM strain 11948, 48 h) was under 0.015 µg/mL. For the same molecule, the MIC (Candida albicans; DSM11949, DSM strain 11949, 48 h) was 0.25 µg/mL (≈ 0.47 µM), the MIC (Candida albicans; strain 98-St-00799, 48 h) was under 0.015 µg/mL and the MIC (Candida tropicalis; DSM11951, 48 h) was 0.125 µg/mL (≈ 0.235 µM). It also gave an MIC (Candida tropicalis; DSM11952, DSM strain 11952, 48 h, read-out: MIC) of 4 µg/mL (≈ 7.53 µM), an MIC (Candida tropicalis; DSM11953, 48 h) of 0.125 µg/mL (≈ 0.235 µM) and an MIC (Cryptococcus neoformans; DSM11959, DSM strain 11959, 48 h) of 0.03 µg/mL (≈ 0.0565 µM). The MIC (Cryptococcus neoformans; DSM11960, DSM strain 11960, 48 h) was 0.125 µg/mL (≈ 0.235 µM), the “total plasma concentration required to inhibit intrahepatic CYP7A” value [3] was “approximately 1 microM; also recorded: approximately 0.5 microg/mL” and the MIC (Saccharomyces cerevisiae) was 0.25 µg/mL (≈ 0.47 µM). For the same molecule, the MIC (Candida glabrata; DSM11226, DSM strain 11226, 48 h) was 0.5 µg/mL (≈ 0.941 µM), the MIC (Candida glabrata; DSM11950, DSM strain 11950, 48 h) was 0.25 µg/mL (≈ 0.47 µM) and the “Cholesterol Levels (mean ± SEM)” value (cholesterol levels; 4 h) was 85.1 ± 7 mg/dL. The “Cholesterol Levels (mean ± SEM)” value (cholesterol levels; 8 h) was 85.1 ± 5.4 mg/dL, the “Cholesterol Levels (mean ± SEM)” value (cholesterol levels; 12 h) was 77.3 ± 1.9 mg/dL and the “Cholesterol Levels (mean ± SEM)” value (cholesterol levels; 16 h) was 77.3 ± 4.6 mg/dL. For the same molecule, the “Cholesterol Levels (mean ± SEM)” value (cholesterol levels; 20 h) was 69.6 ± 2.7 mg/dL, the “Cholesterol Levels (mean ± SEM)” value (cholesterol levels; 24 h) was 69.6 ± 1.5 mg/dL and the MIC (Issatchenkia orientalis; DSM11956, DSM strain 11956, 48 h) was 0.5 µg/mL (≈ 0.941 µM). For the same molecule, the MIC (Issatchenkia orientalis; DSM11958, DSM strain 11958, 48 h) was 2 µg/mL (≈ 3.76 µM), the IC50 (P450 3A) was 0.79 µM and the “effect on plasma corticosterone (FIG. 1)” value (plasma corticosterone; 4 h) was “reduce corticosterone”. The “Corticosteroid Levels (mean ± SEM)” value (plasma corticosterone; single oral 50 mg/kg) was 226 ± 30.1 ng/mL, the “Corticosteroid Levels (mean ± SEM)” value (plasma corticosterone; single oral 100 mg/kg) was 196 ± 17.2 ng/mL and the “Corticosteroid Levels (mean ± SEM), time course” value (plasma corticosterone; single oral 200 mg/kg, 4 h) was 191 ± 14 ng/mL. For the same molecule, the “Corticosteroid Levels (mean ± SEM)” value (plasma corticosterone; single oral 200 mg/kg) was 217 ± 25.8 ng/mL, the “Corticosteroid Levels (mean ± SEM), time course” value (plasma corticosterone; single oral 200 mg/kg, 8 h) was 206 ± 13 ng/mL and the “Corticosteroid Levels (mean ± SEM), time course” value (plasma corticosterone; single oral 200 mg/kg, 12 h) was 175 ± 9 ng/mL. The “Corticosteroid Levels (mean ± SEM), time course” value (plasma corticosterone; single oral 200 mg/kg, 16 h) was 171 ± 9 ng/mL, the “Corticosteroid Levels (mean ± SEM), time course” value (plasma corticosterone; single oral 200 mg/kg, 20 h) was 169 ± 7 ng/mL and the “Corticosteroid Levels (mean ± SEM), time course” value (plasma corticosterone; single oral 200 mg/kg, 24 h) was 182 ± 10 ng/mL. The “Corticosteroid Levels (mean ± SEM)” value (plasma corticosterone; single oral 400 mg/kg) was 192 ± 11.6 ng/mL, the “Corticosteroid Levels (mean ± SEM)” value (plasma corticosterone; single oral 600 mg/kg) was 167 ± 6.8 ng/mL and the “Testosterone levels (mean ± SEM)” value (testosterone levels; single oral 50 mg/kg) was 2.5 ± 0.5 nmol/L. The “Testosterone levels (mean ± SEM)” value (testosterone levels; single oral 100 mg/kg) was 1.3 ± 0.2 nmol/L, the “Testosterone levels (mean ± SEM), time course” value (testosterone levels; single oral 200 mg/kg, 4 h) was 3.4 ± 0.5 nmol/L and the “Testosterone levels (mean ± SEM)” value (testosterone levels; single oral 200 mg/kg) was 1.4 ± 0.4 nmol/L. The “Testosterone levels (mean ± SEM), time course” value (testosterone levels; single oral 200 mg/kg, 8 h) was 8.6 ± 2.0 nmol/L, the “Testosterone levels (mean ± SEM), time course” value (testosterone levels; single oral 200 mg/kg, 12 h) was 5.6 ± 1.1 nmol/L and the “Testosterone levels (mean ± SEM), time course” value (testosterone levels; single oral 200 mg/kg, 16 h) was 5.5 ± 0.9 nmol/L. The “Testosterone levels (mean ± SEM), time course” value (testosterone levels; single oral 200 mg/kg, 20 h) was 5.2 ± 1.1 nmol/L, the “Testosterone levels (mean ± SEM), time course” value (testosterone levels; single oral 200 mg/kg, 24 h) was 6.0 ± 1.0 nmol/L and the “Testosterone levels (mean ± SEM)” value (testosterone levels; single oral 400 mg/kg) was 0.7 ± 0.2 nmol/L. For the same molecule, the “Testosterone levels (mean ± SEM)” value (testosterone levels; single oral 600 mg/kg) was 1.6 ± 0.3 nmol/L.
In the case of `CC(=O)N1CCN(c2ccc(OCC3COC(Cn4ccnc4)(c4ccc(Cl)cc4Cl)O3)cc2)CC1` (stereo not drawn) [2S45], the “effect on plasma corticosterone (FIG. 1)” value (plasma corticosterone; 4 h) is reported as “little effect”.
In the case of `Clc1ccc(C2(Cn3ccnc3)OCC(COc3ccc(N4CCNCC4)cc3)O2)c(Cl)c1` (stereo not drawn) [DAK, deacetylated ketoconazole], the IC50 (succinate dehydrogenase) is listed as 350 µM.
